Source: patent US8129417B2, “Substituted octahydrocyclopenta[C]pyrrol-4-amines as calcium channel blockers” (Abbott Laboratories, priority 2008, dated 2012)

target: human Cav2.2 (Homo sapiens, UniProt Q00975); experiment: Assessment of calcium channel activity using FLIPR (Ca2+ influx in IMR32 cells); type: cell-based; settings: 3 minute pre-incubation with compound (*), 2 μM nifedipine, depolarized with 80 mM KCl
Method: (i) In Vitro Methods—Assessment of Calcium Channel Activity Using FLIPR:
The IMR32 cells were maintained in MEM media containing 10% (v/v) FBS, 1% (v/v) antibiotic/antimitotic, 1% (v/v) sodium pyruvate and 1% (v/v) MEM NEAA. Following dissociation in 0.05% (v/v) trypsin/EDTA, cells were seeded into black 1×96-well plates (Corning Cellbind) at a density of 1-1.2×10^5 cells/well and incubated in the maintenance media above for 48 hours at 37° C. […] To determine the IC50 values, the percent inhibition of the compound at each concentration was determined relative to the activity in the absence of inhibitor, and data was fitted using non-linear regression sigmoidal dose response curve analysis with GraphPad Prism®.

Chain of human Cav2.2 (Q00975 whole entry): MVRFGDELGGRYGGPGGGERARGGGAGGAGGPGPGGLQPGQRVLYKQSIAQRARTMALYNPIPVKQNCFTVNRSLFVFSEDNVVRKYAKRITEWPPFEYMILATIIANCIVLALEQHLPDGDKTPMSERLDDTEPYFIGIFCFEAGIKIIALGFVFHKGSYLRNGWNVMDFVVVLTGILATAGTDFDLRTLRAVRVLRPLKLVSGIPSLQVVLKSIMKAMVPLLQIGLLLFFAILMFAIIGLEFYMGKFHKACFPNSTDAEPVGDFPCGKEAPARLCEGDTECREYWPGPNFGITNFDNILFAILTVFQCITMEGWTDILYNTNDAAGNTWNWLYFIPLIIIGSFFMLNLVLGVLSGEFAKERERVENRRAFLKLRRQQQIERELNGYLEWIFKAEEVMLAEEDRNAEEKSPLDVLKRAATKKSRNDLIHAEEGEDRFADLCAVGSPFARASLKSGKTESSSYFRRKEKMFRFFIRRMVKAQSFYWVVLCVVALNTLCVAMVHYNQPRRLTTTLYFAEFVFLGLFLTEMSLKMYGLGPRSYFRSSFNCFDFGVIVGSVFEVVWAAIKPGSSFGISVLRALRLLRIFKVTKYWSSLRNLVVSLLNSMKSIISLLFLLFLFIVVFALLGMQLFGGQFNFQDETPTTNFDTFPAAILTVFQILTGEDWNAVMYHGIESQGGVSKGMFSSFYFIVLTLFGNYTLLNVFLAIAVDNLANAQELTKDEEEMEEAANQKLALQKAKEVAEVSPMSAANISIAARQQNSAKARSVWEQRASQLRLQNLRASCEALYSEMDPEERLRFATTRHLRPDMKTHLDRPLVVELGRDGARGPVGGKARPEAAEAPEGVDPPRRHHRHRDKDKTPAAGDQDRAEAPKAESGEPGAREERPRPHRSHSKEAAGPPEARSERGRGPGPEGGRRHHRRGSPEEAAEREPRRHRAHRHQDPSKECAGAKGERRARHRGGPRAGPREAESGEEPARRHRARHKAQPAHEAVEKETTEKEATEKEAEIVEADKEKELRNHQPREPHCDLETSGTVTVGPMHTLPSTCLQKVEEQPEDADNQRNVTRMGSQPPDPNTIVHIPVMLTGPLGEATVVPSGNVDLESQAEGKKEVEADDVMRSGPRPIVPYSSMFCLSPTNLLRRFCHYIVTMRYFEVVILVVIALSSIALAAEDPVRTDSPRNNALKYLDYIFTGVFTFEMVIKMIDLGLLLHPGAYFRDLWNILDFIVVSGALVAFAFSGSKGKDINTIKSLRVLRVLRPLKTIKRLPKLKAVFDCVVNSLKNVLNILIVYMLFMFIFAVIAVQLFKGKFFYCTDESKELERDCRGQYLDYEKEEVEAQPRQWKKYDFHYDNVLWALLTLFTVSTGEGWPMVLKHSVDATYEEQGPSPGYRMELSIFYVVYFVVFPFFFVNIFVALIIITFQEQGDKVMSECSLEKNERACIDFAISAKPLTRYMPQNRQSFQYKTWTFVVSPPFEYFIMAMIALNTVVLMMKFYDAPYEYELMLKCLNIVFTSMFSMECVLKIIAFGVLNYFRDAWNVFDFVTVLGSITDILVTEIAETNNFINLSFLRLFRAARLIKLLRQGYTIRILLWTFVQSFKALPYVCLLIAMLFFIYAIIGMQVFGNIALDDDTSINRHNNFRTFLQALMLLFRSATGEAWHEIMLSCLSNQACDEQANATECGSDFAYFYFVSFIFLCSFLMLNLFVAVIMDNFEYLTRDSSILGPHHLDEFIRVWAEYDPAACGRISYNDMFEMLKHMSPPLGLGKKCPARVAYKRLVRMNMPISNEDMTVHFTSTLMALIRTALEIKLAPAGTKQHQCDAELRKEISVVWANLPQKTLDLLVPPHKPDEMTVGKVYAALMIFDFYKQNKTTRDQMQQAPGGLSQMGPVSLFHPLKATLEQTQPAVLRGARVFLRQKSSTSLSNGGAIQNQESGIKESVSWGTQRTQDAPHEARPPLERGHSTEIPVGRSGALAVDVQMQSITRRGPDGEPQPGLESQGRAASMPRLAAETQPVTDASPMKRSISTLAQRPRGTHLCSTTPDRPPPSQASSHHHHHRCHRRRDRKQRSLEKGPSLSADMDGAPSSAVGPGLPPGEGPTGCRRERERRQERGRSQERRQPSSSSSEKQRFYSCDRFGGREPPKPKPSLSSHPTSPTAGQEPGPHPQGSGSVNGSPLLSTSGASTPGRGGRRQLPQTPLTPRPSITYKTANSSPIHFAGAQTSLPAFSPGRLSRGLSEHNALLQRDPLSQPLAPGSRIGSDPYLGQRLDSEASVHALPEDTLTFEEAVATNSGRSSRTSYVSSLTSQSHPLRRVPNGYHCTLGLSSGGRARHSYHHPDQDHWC
Chain of human Cav2.2 (P54289 25-946 partner limits assumed): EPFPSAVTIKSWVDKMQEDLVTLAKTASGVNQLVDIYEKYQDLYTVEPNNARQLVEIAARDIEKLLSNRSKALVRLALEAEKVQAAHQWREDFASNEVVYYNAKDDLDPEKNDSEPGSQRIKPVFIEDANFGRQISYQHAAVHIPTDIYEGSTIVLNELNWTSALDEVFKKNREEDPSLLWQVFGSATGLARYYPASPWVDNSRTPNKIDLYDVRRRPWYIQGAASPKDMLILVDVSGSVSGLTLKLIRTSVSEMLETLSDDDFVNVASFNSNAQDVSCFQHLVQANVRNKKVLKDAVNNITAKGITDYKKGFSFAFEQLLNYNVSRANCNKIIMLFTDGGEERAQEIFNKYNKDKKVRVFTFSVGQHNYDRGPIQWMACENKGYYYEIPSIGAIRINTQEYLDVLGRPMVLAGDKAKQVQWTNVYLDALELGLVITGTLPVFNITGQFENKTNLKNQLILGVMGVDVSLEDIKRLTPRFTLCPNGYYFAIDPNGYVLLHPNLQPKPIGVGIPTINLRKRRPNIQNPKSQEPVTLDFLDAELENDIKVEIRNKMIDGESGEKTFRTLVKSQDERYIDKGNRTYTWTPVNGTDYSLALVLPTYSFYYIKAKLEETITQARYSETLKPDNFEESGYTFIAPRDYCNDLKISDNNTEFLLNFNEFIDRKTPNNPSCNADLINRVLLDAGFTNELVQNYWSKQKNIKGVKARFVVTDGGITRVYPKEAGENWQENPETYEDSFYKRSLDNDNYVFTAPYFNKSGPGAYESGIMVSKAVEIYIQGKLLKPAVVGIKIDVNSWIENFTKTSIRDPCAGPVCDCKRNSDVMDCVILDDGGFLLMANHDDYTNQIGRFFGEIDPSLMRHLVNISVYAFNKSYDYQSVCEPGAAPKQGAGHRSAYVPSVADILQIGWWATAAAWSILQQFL
Chain of human Cav2.2 (P54289 947-1103 partner limits assumed): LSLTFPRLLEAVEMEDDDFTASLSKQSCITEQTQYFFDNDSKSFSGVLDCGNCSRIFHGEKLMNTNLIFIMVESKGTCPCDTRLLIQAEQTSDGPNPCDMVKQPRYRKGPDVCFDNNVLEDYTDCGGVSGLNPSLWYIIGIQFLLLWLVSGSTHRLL
Chain of human Cav2.2 (P54284 whole entry partner): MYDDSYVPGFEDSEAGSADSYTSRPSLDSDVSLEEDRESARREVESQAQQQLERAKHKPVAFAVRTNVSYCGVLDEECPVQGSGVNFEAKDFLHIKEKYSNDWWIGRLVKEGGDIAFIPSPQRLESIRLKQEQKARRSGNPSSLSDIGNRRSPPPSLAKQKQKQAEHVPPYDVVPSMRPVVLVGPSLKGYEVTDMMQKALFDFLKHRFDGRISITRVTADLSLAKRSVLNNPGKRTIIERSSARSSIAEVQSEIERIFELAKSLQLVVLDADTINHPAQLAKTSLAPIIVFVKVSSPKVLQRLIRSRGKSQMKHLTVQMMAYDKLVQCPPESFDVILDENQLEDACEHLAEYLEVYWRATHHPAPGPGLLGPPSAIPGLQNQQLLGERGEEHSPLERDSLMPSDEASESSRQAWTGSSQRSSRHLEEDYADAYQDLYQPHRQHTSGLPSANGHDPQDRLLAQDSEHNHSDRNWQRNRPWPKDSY

Point of comparison: `CC(C)(C(=O)N[C@@H]1CC[C@H]2CN(Cc3ccccc3)C[C@H]21)c1ccccc1` [Example 27, N-[(3aS,4R,6aR)-2-benzyloctahydrocyclopenta[c]pyrrol-4-yl]-2-methyl-2-phenylpropanamide], IC50 9.7 µM. Against it:
- CCCC(CCC)C(=O)N[C@@H]1CC[C@H]2CN(Cc3ccccc3)C[C@H]21 [Example 21, N-[(3aS,4R,6aR)-2-benzyloctahydrocyclopenta[c]pyrrol-4-yl]-2-propylpentanamide] — within 1.5-fold, 10.1 µM
- O=C(N[C@@H]1CC[C@H]2CN(Cc3ccccc3)C[C@H]21)C1CCCCCC1 [Example 22, N-[(3aS,4R,6aR)-2-benzyloctahydrocyclopenta[c]pyrrol-4-yl]cycloheptanecarboxamide] — 1.5-fold higher, 14.7 µM
- O=C(N[C@@H]1CC[C@H]2CN(Cc3ccccc3)C[C@H]21)C1(c2ccccc2)CCCCC1 [Example 24, N-[(3aS,4R,6aR)-2-benzyloctahydrocyclopenta[c]pyrrol-4-yl]-1-phenylcyclohexanecarboxamide] — 3.3-fold lower, 2.9 µM
- O=C(N[C@@H]1CC[C@H]2CN(Cc3ccccc3)C[C@H]21)C(Cc1ccccc1)c1ccccc1 (stereo partly drawn) [Example 25, N-[(3aS,4R,6aR)-2-benzyloctahydrocyclopenta[c]pyrrol-4-yl]-2,3-diphenylpropanamide] — 2.6-fold lower, 3.7 µM
- CC(Cc1ccccc1)C(=O)N[C@@H]1CC[C@H]2CN(Cc3ccccc3)C[C@H]21 (stereo partly drawn) [Example 26, N-[(3aS,4R,6aR)-2-benzyloctahydrocyclopenta[c]pyrrol-4-yl]-2-methyl-3-phenylpropanamide] — 1.8-fold higher, 17.3 µM
- O=C(N[C@@H]1CC[C@H]2CN(Cc3ccccc3)C[C@H]21)C1(c2ccccc2)CC1 [Example 28, N-[(3aS,4R,6aR)-2-benzyloctahydrocyclopenta[c]pyrrol-4-yl]-1-phenylcyclopropanecarboxamide] — within 1.5-fold, 13.9 µM
- CC(C)(C)C(Cc1ccccc1)C(=O)N[C@@H]1CC[C@H]2CN(Cc3ccccc3)C[C@H]21 (stereo partly drawn) [Example 29, 2-benzyl-N-[(3aS,4R,6aR)-2-benzyloctahydrocyclopenta[c]pyrrol-4-yl]-3,3-dimethylbutanamide] — 1.7-fold lower, 5.6 µM
- O=C(N[C@H]1CC[C@@H]2CN(Cc3ccccc3)C[C@@H]21)C(C1CCCCC1)C1CCCCC1 [Example 40, N-[(3aR,4S,6aS)-2-benzyloctahydrocyclopenta[c]pyrrol-4-yl]-2,2-dicyclohexylacetamide] — 2.7-fold lower, 3.6 µM
- CCC(CC)C(C(=O)N[C@H]1CC[C@@H]2CN(Cc3ccccc3)C[C@@H]21)c1ccccc1 (stereo partly drawn) [Example 44, N-[(3aR,4S,6aS)-2-benzyloctahydrocyclopenta[c]pyrrol-4-yl]-3-ethyl-2-phenylpentanamide] — 5.7-fold lower, 1.7 µM
- O=C(N[C@H]1CC[C@@H]2CN(Cc3ccccc3)C[C@@H]21)C1(c2ccccc2)CCCCC1 [Example 46, N-[(3aR,4S,6aS)-2-benzyloctahydrocyclopenta[c]pyrrol-4-yl]-1-phenylcyclohexanecarboxamide] — 3.1-fold lower, 3.1 µM
- CC(C)(C(=O)N[C@H]1CC[C@@H]2CN(Cc3ccccc3)C[C@@H]21)c1ccccc1 [Example 47, N-[(3aR,4S,6aS)-2-benzyloctahydrocyclopenta[c]pyrrol-4-yl]-2-methyl-2-phenylpropanamide] — 1.6-fold higher, 15.6 µM
- O=C(N[C@H]1CC[C@@H]2CN(Cc3ccccc3)C[C@@H]21)C1(c2ccccc2)CC1 [Example 48, N-[(3aR,4S,6aS)-2-benzyloctahydrocyclopenta[c]pyrrol-4-yl]-1-phenylcyclopropanecarboxamide] — within 1.5-fold, 10.5 µM
- CC(C)(C)C(Cc1ccccc1)C(=O)N[C@H]1CC[C@@H]2CN(Cc3ccccc3)C[C@@H]21 (stereo partly drawn) [Example 49, 2-benzyl-N-[(3aR,4S,6aS)-2-benzyloctahydrocyclopenta[c]pyrrol-4-yl]-3,3-dimethylbutanamide] — 2.1-fold lower, 4.6 µM
- O=C(N[C@H]1CC[C@@H]2CN(Cc3ccccc3)C[C@@H]21)C(Cc1ccccc1)c1ccccc1 (stereo partly drawn) [Example 50, N-[(3aR,4S,6aS)-2-benzyloctahydrocyclopenta[c]pyrrol-4-yl]-2,3-diphenylpropanamide] — 1.9-fold lower, 5 µM
- CC(Cc1ccccc1)C(=O)N[C@H]1CC[C@@H]2CN(Cc3ccccc3)C[C@@H]21 (stereo partly drawn) [Example 51, N-[(3aR,4S,6aS)-2-benzyloctahydrocyclopenta[c]pyrrol-4-yl]-2-methyl-3-phenylpropanamide] — 1.6-fold higher, 15.2 µM

same assay, conditions: 60 minute pre-incubation with compound, 2 μM nifedipine, depolarized with 80 mM KCl

Point of comparison: `O=S(=O)(c1cccc(C(F)(F)F)c1)N(C1CC1)[C@@H]1CC[C@H]2CN(Cc3ccccc3)C[C@H]21` (relative stereo) [Example 200, N-[(3aS*,4R*,6aR*)-2-benzyloctahydrocyclopenta[c]pyrrol-4-yl]-N-cyclopropyl-3-(trifluoromethyl)benzenesulfonamide], IC50 1 µM. Against it:
- O=S(=O)(c1cccc(C(F)(F)F)c1)N(C1CC1)[C@H]1CC[C@H]2CNC[C@H]21 (relative stereo) [Example 201, N-cyclopropyl-N-[(3aS*,4S*,6aR*)-octahydrocyclopenta[c]pyrrol-4-yl]-3-(trifluoromethyl)benzenesulfonamide] — 5.2-fold higher, 5.2 µM
- O=S(=O)(N[C@H]1CC[C@H]2CN(Cc3cccc(C(F)(F)F)c3)C[C@H]21)c1cccc(C(F)(F)F)c1 (single isomer, unassigned) [Example 186, 3-(trifluoromethyl)-N-{(3aS*,4S*,6aR*)-2-[3-(trifluoromethyl)benzyl]octahydrocyclopenta[c]pyrrol-4-yl}benzenesulfonamide] — 1.7-fold lower, 0.6 µM
- O=C(N[C@@H]1CC[C@H]2CN(Cc3ccccc3)C[C@H]21)C(C1CCCCC1)C1CCCCC1 [Example 20, N-[(3aS,4R,6aR)-2-benzyloctahydrocyclopenta[c]pyrrol-4-yl]-2,2-dicyclohexylacetamide] — 1.8-fold higher, 1.8 µM
- CC(C)Cc1ccc([C@H](C)C(=O)N[C@@H]2CC[C@H]3CN(Cc4ccccc4)C[C@H]32)cc1 [Example 23, (2S)—N-[(3aS,4R,6aR)-2-benzyloctahydrocyclopenta[c]pyrrol-4-yl]-2-(4-isobutylphenyl)propanamide] — 2.5-fold higher, 2.5 µM
- O=C(N[C@H]1CC[C@H]2CN(Cc3ccccc3F)C[C@H]21)C(C1CCCCC1)C1CCCCC1 [Example 55, 2,2-dicyclohexyl-N-[(3aS,4S,6aR)-2-(2-fluorobenzyl)octahydrocyclopenta[c]pyrrol-4-yl]acetamide] — within 1.5-fold, 0.8 µM
- O=C(N[C@H]1CC[C@H]2CN(Cc3ccc(F)cc3)C[C@H]21)C(C1CCCCC1)C1CCCCC1 [Example 56, 2,2-dicyclohexyl-N-[(3aS,4S,6aR)-2-(4-fluorobenzyl)octahydrocyclopenta[c]pyrrol-4-yl]acetamide] — the same, 1 µM
- O=C(N[C@H]1CC[C@H]2CN(Cc3ccccc3C(F)(F)F)C[C@H]21)C(C1CCCCC1)C1CCCCC1 [Example 60, 2,2-dicyclohexyl-N-{(3aS,4S,6aR)-2-[2-(trifluoromethyl)benzyl]octahydrocyclopenta[c]pyrrol-4-yl}acetamide] — 1.5-fold higher, 1.5 µM
- Cc1cccc(CN2C[C@@H]3CC[C@H](NC(=O)C(C4CCCCC4)C4CCCCC4)[C@@H]3C2)c1 [Example 61, 2,2-dicyclohexyl-N-[(3aS,4S,6aR)-2-(3-methylbenzyl)octahydrocyclopenta[c]pyrrol-4-yl]acetamide] — 1.5-fold higher, 1.5 µM
- O=C(N[C@H]1CC[C@H]2CN(Cc3cccc(OC(F)(F)F)c3)C[C@H]21)C(C1CCCCC1)C1CCCCC1 [Example 63, 2,2-dicyclohexyl-N-{(3aS,4S,6aR)-2-[3-(trifluoromethoxy)benzyl]octahydrocyclopenta[c]pyrrol-4-yl}acetamide] — 1.7-fold lower, 0.6 µM
- O=C(N[C@H]1CC[C@H]2CN(Cc3cccc(F)c3)C[C@H]21)C(C1CCCCC1)C1CCCCC1 [Example 64, 2,2-dicyclohexyl-N-[(3aS,4S,6aR)-2-(3-fluorobenzyl)octahydrocyclopenta[c]pyrrol-4-yl]acetamide] — within 1.5-fold, 1.3 µM

same assay, conditions: IMR-32, @ 10 μM, 3 minute pre-incubation (*), read-out: percent inhibition

Point of comparison: `C[C@H](C(=O)N[C@@H]1CC[C@H]2CN(Cc3ccccc3)C[C@H]21)c1ccccc1` [Example 19, (2S)—N-[(3aS,4R,6aR)-2-benzyloctahydrocyclopenta[c]pyrrol-4-yl]-2-phenylpropanamide], inhibition at 10 µM 25%. Against it:
- CC(C)C(C(=O)N1C[C@H]2CC[C@H](NCc3ccccc3)[C@H]2C1)c1ccccc1 (relative stereo) [Example 216, (3aR*,4S*,6aS*)-N-benzyl-2-(3-methyl-2-phenylbutanoyl)octahydrocyclopenta[c]pyrrol-4-amine] — higher, 85%
- CC[C@@H](C(=O)N[C@H]1CC[C@@H]2CN(Cc3ccccc3)C[C@@H]21)c1ccccc1 [Example 36, (2R)—N-[(3aR,4S,6aS)-2-benzyloctahydrocyclopenta[c]pyrrol-4-yl]-2-phenylbutanamide] — higher, 44%
- C[C@@H](C(=O)N[C@H]1CC[C@@H]2CN(Cc3ccccc3)C[C@@H]21)c1ccccc1 [Example 37, (2R)—N-[(3aR,4S,6aS)-2-benzyloctahydrocyclopenta[c]pyrrol-4-yl]-2-phenylpropanamide] — lower, 15%
- C[C@H](C(=O)N[C@H]1CC[C@@H]2CN(Cc3ccccc3)C[C@@H]21)c1ccccc1 [Example 38, (2S)—N-[(3aR,4S,6aS)-2-benzyloctahydrocyclopenta[c]pyrrol-4-yl]-2-phenylpropanamide] — higher, 27%
- CC(C)Cc1ccc([C@H](C)C(=O)N[C@H]2CC[C@@H]3CN(Cc4ccccc4)C[C@@H]32)cc1 [Example 39, (2S)—N-[(3aR,4S,6aS)-2-benzyloctahydrocyclopenta[c]pyrrol-4-yl]-2-(4-isobutylphenyl)propanamide] — higher, 92%
- O=C(N[C@H]1CC[C@@H]2CN(Cc3ccccc3)C[C@@H]21)C(c1ccccc1)C1CC1 (stereo partly drawn) [Example 41, N-[(3aR,4S,6aS)-2-benzyloctahydrocyclopenta[c]pyrrol-4-yl]-2-cyclopropyl-2-phenylacetamide] — higher, 56%
